The values below come from patent US5688943A, “Benzodiazepine derivatives useful as CCK-receptor antagonists” (Yamanouchi Pharmaceutical Co., Ltd., priority 1992, dated 1997).

Assay [1] has as its system pentagastrin-stimulated gastric acid secretion. Description: Measurement of inhibition of pentagastrin-stimulated gastric acid secretion in rat. It is filed as in vivo. Particulars: anaesthetised rat, test drug intravenous, pentagastrin 15 μg/Kg/hr i.v.; read-out: ED50, reduction of pentagastrin-stimulated gastric acid secretion to 50% of the maximum level. From the text:
Measurement of inhibition of pentagastrin-stimulated gastric acid secretion in rat
A cannula was inserted into the trachea of a rat anaesthetised with urethane (intraperitoneally administered, 1.25 g/Kg), its abdominal wall was incised to expose the gastric and duodenal portions, and a polyethylene cannula was set in the anterior stomach after ligation of the cardia. The duodenum was then subjected to slight section, a polyethylene cannula was inserted from the incised portion toward the stomach, and the pylorus was ligated to fix the cannula.
Physiological saline (with pH adjusted to 7.0) was perfused from the anterior stomach toward the pylorus at a rate of 3 ml/min, and the gastric-acid secretion was measured by continuous titration of the perfusate by the use of a pH-stat (AUT-201; product of Toa Electronics, Ltd.). The continuous titration was carried out by using 25 mM NaOH solution until the pH reached 7.0, and the result was expressed as the amount of gastric acid secreted for every 10 minutes (μEq /10 min.). Pentagastrin was intravenously administered at a rate of 15 μg/Kg/hr.
The secretion of gastric acid increased upon administration of pentagastrin, reaching the maximum level after 60 minutes and stably maintaining this level after that. A test drug was then intravenously administered, and the secretion of gastric acid was measured; ED50 values were determined, being the amount of the drug required to reduce the amount of secreted gastic acid down to 50% of the maximum level.

For the next assay, the target named is T1, CCK-B receptors (Rattus norvegicus, UniProt P30553).
T1 construct: the whole brain was immediately excised from each of the rats and homogenized; from tissue; host or cells: SD rat whole brain membranes
Description: Measurement of binding affinity for CCK-B receptors ([125I]BH-CCK-8, rat brain membranes). Set-up: species or system SD rats. Particulars: for A/B Ratio: ratio IC50 (CCK-A)/IC50 (CCK-B). The protocol: Measurement of binding affinity for CCK-B receptors
About 100 SD rats were decapitated without anaesthesia, the whole brain was immediately excised from each of the rats and homogenized in 10-fold volume of 0.32M aqueous solution of sucrose by the use of a Teflon-coated homogenizer, the homogenate thus obtained was centrifuged for ten minutes at 900 g by the use of a cooled centrifuge, and the supernatant was further centrifuged for 15 minutes at 11500 g. The precipitate thus obtained was dispersed in 50 mM Tris-HCl buffer (pH 7.4) containing 0.08% Triton X-100, this suspension was allowed to stand for 30 minutes and again centrifuged for 15 minutes at 11500 g, the precipitate thus obtained was washed twice with 5 mM Tris-HCl buffer and twice with 50 mM Tris-HCl buffer in that order with centrifugal separation, the washed precipitate was suspended in 50 mM Tris-HCl buffer, and the suspension thus obtained was stored at -80° C. until the membrane preparation was required.
The membrane preparations were warmed to room temperature, diluted with 10 mM HEPES buffer (containing 130 mM NaCl, 5 mM MgCl2, 1 mM EGTA and 0.25 mg/ml bacitracin; pH 6.5) and incubated at 25° C. for 120 minutes in the presence of [^125 I]BH-CCK-8 and the test compound, then separated by suction filtration. Non-specific binding was determined in the presence of 1 μM CCK-8. The amount of labelled ligand bound to the receptor was measured by the use of a γ-counter; IC50 values were determined, being that concentration of test compound required to inhibit specific binding by 50%.
(§1) A high affinity for the CCK-A receptor in a gastrin/CCK-B antagonist is thought to be undesirable as it may lead to side-effects such as cholestasis and gall stone formation during therapy. Therefore it is preferable for the therapeutic agent to be selective for the CCK-B receptor. This selectivity is expressed by the ratio IC50 (CCK-A)/IC50 (CCK-B); the higher the value of this ratio the better is the selectivity.

Another assay concerns the target T2, CCK-A receptors (Rattus norvegicus, UniProt P30551).
T2 construct: The pancreas of an SD rat was homogenized; from tissue; host or cells: SD rat pancreas membranes
T2 sequence (P30551 1-444): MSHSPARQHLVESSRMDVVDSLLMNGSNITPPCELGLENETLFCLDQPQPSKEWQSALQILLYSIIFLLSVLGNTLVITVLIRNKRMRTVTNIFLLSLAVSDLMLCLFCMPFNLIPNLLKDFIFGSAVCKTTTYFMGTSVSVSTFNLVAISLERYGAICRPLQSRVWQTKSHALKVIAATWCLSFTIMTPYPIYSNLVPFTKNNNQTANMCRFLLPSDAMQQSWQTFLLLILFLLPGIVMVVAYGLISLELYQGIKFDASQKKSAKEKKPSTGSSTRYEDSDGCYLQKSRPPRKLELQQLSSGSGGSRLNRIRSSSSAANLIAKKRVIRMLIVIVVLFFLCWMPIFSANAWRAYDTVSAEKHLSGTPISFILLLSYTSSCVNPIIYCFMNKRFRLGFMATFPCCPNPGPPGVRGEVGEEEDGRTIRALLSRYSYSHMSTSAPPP
Description: Measurement of binding affinity for CCK-A receptors ([3H]L-364,718, rat pancreas membranes). Particulars: [3H]L-364,718, 37° C., 30 minutes, read-out: Receptor binding affinity IC50, CCK-A. Details: species or system SD rat. The procedure: Measurement of binding affinity for CCK-A receptors
The pancreas of an SD rat was homogenized in a 20-fold volume of 50 mM Tris-HCl buffer (pH 7.7) by the use of a Polytrone-type homogenizer, the homogenate was twice centrifuged for 10 minutes at 50000 g by the use of an ultra-centrifuge, the precipitate thus obtained was suspended in a 40-fold volume of 50 mM Tris-HCl buffer (containing 0.2% BSA, 5 mM MgCl2, 0.1 mg/ml bacitracin and 5 mM DTT; pH 7.7), and the suspension was stored at -80° C. until the membrane preparations were required.
The membrane preparations were then warmed to room temperature, diluted 1:10 with the buffer and incubated at 37° C. for 30 minutes in the presence of [^3 H]L-364,718 and the test compound then separated by suction filtration. Non-specific binding was determined in the presence of 1 μM L-364,718. The amount of labelled ligand bound to the receptor was measured by the use of a liquid scintillation counter; IC50 values were determined, being that concentration of test compound required to inhibit specific binding by 50%
as §1

T1 sequence (P30553 whole entry): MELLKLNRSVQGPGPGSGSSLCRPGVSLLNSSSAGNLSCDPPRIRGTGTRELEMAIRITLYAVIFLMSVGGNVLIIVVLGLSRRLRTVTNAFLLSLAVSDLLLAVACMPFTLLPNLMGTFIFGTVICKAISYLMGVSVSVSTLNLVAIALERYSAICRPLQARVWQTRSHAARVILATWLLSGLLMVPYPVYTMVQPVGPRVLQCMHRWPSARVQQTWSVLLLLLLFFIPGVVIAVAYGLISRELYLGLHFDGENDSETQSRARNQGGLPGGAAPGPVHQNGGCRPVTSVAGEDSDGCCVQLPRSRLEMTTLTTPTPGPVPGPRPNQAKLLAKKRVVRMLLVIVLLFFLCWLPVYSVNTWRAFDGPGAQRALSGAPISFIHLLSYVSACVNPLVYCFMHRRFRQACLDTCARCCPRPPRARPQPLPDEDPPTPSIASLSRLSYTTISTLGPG

What is called ED50 is the dose that gives a 50% effect, or the effect in half of the subjects. For `Cc1cccc(NC(=O)NC2N=C(c3ccccc3)c3ccccc3N(CC(=O)C3CCCCC3)C2=O)c1` (racemic) [Example 7, N-((3RS)-1-Cyclohexylcarbonylmethyl-2,3-dihydro-2-oxo-5-phenyl-1H-1,4-benzodiazepin-3-yl)-N'-(3-methylphenyl)urea], in assay [1], the ED50 came to 0.047 µmol/kg. Same read-out and setting: for `Cc1cccc(NC(=O)NC2N=C(c3ccccc3)c3ccccc3N(CC(=O)C3CCCCCC3)C2=O)c1` (racemic) [Example 5, N-((3RS)-1-Cycloheptylcarbonylmethyl-2,3-dihydro-2-oxo-5-phenyl-1H-1,4-benzodiazepin-3-yl)-N'-(3-methylphenyl)urea] the value was 0.018 µmol/kg; for `Cc1cccc(NC(=O)N[C@@H]2N=C(c3ccccc3)c3ccccc3N(C)C2=O)c1` [reference compound], 4.2 µmol/kg. For orientation: IC50 means the concentration at which inhibition is half-maximal. Regarding `Cc1cccc(NC(=O)NC2N=C(c3ccccc3)c3ccccc3N(CC(=O)C3CCCC3)C2=O)c1` (racemic) [Example 4, N-((3RS)-1-Cyclopentylcarbonylmethyl-2,3-dihydro-2-oxo-5-phenyl-1H-1,4-benzodiazepin-3-yl)-N'-(3-methylphenyl)urea], the “A/B Ratio” value on CCK-B receptors was 1,900. Besides, in assay [1], the ED50 is 0.016 µmol/kg. In addition, at CCK-A receptors, the IC50 worked out at 440 nM. `O=C(Nc1cccc(C(=O)O)c1)N[C@@H]1N=C(c2ccccc2)c2ccccc2N(C[C@H](O)C2CCCC2)C1=O` [Example 25, N-((3R)-1-((2R)-2-Cyclopentyl-2-hydroxyethyl)-2,3-dihydro-2-oxo-5-phenyl-1H-1,4-benzodiazepin-3-yl)-N'-(3-carboxyphenyl)urea]: the IC50 on CCK-B receptors (rat brain membranes, [125I]BH-CCK-8, 25° C., 120 minutes, pH 6.5, read-out: Receptor binding affinity IC50, CCK-B) is 0.65 nM; at CCK-A receptors, greater than 10000 nM. Further, the “A/B Ratio” value at CCK-B receptors was > 15,000.
